Measurements from patent US10358467B2, “Therapeutic targets for cancer progression” (The Regents of the University of California, priority 2015, dated 2019).

Tests used:
DLD1 cells [1] = assay: Anchorage-dependent tumor growth assay; assay type: cell-based, human; conditions: for inhibition of anchorage-dependent tumor growth: DLD1 cells, plastic plates
Procedure: Anchorage-dependent growth was monitored on solid (plastic) surface as described previously (Franken et al, 2006). Briefly, anchorage-dependent growth was monitored on solid (plastic) surface. Approximately ˜1000 DLD1 cells stably expressing various DAPLE constructs were plated in 6-well plates and incubated in 5% CO2 at 37° C. for ˜2 weeks in 0.2% FBS growth media. Colonies were then stained with 0.005% crystal violet for 1 h. The remaining DLD1 cells were lysed and analyzed by immunoblotting to confirm DAPLE construct expression. Each experiment was analyzed in triplicate.

[2] = system: Ras-transformed NIH3T3 cells; assay: Transformation assay, colony formation in soft agar; assay type: cell-based; conditions: NIH3T3 co-expressing HA-KRas G12V
Procedure: Neoplastic transformationin Ras-transformed NIH3T3 fibroblasts was analyzed using standard assays of colony formation in soft agar as described previously (Clark et al, 1995). Low passage NIH3T3 cells (˜5000) stably co-transfected with appropriate myc-DAPLE construct (2 μg cDNA) and HA-Ras G12V (1 μg cDNA) were analyzed for their ability to form tumor foci in soft agar plates. Plates were incubated in 5% CO2 at 37° C. for ˜2 weeks in growth media supplemented with 2% FBS. They were finally incubated with 0.1% (wt/vol)dimethylthiazol-2-yl)2 2,5-diphenyl tetrazolium bromide (MTT; Sigma) in PBS for 1 h to visualize colonies. The remaining NIH3T3 cells not used for this assay were lysed and analyzed for myc-DAPLE and Ha-Ras G12V expression by immunoblotting.

DLD1 cells [3] = assay: Anchorage-independent tumor growth assay; assay type: cell-based, human; conditions: soft agar
Procedure: Anchorage-independent growth of DLD1 cells was analyzed in agar as described previously (Wallert M A, 2007). Briefly, petri plates (60 mm) were pre-layered with 3 ml 1% Bacto agar (Life Technologies) in DMEM containing 10% FBS. Approximately ˜5000 DLD1 cells stably expressing various DAPLE constructs were then plated on top in 3 ml of 0.3% agar-DMEM with 10% FBS. All assays were carried out using three replicate plates at a seeding density of ˜5000 cells/plate. Following overnight incubation in 5% CO2 incubator, 1 ml DMEM supplemented with 2% FBS was added to maintain hydration. After 2 wks of growth, colonies were stained with 0.005% crystal violet/methanol for 1 h, and subsequently photographed by light microscopy. The number of colonies in ˜15-20 randomly-selected fields were counted under 10× magnification. The remaining DLD1 cells were lysed and analyzed by immunoblotting to confirm DAPLE construct expression. Each experiment was analyzed in triplicate.

NIH3T3 cells = assay: 3D spheroid matrigel invasion assay; assay type: cell-based; conditions: in response to Wnt5a
Procedure: NIH3T3 cell invasion assay in 3D culture was performed according to the manufacturer's protocol (Trevigen, Cultrex 3D Spheroid BME Cell Invasion Assay, catalog #3500-096-K). Briefly, non-invasive NIH3T3 cells (˜3000 cells) transfected with empty vector (control) or myc-DAPLEconstructs were incubated first in the Spheroid Formation extracellular matrix (ECM) containing 0.2% FBS for 3 days. Invasion matrix was then added and layered on top with media containing FBS. […] Photographs were analyzed and pseudocolored by Image J to reflect cell density.

[4] = system: β-Catenin/TCF/LEF pathway in DLD1 7TGP cells; assay: β-Catenin reporter assay (7TGP); assay type: cell-based, human; conditions: stable expression, starved and stimulated with Wnt5a, versus vector control
Procedure: These assays were carried out using the well-established reporter 7×Tcf-eGFP (7TGP) (Fuerer & Nusse, 2010). Stable cells lines expressing this reporter were generated by lentiviral transduction and subsequent selection using standard procedures. Lentiviral infection and selection were performed according to standard procedures. Briefly, 10 cm plates DLD1 cells at 70% confluency were incubated with media containing 8 μg/mL polybrene and 10 μl of lentivirus for 6 h. After 24 hours post infection, selection of puromycin-resistant clones was initiated by adding the antibiotic at 2 μg/ml final concentration. The resultant DLD1-7TGP stable cells were subsequently transfected with various myc-DAPLE constructs and selected for G418 resistance as described earlier in methods. The DLD1-7TGP cells stably expressing myc-DAPLE were incubated overnight at 0.2% FBS, analyzed by fluorescence microscopy, and photographed prior to lysis. Whole cell lysates samples were then boiled in Laemmli's sample buffer and GFP protein expression was monitored by immunoblotting.

His-Gαi3 [5] = molecular target: T1, His-Gαi3 (Rattus norvegicus, UniProt P08753); assay: Steady-state GTPase assay; assay type: biochemical; conditions: parallel reactions, WT replaced by F1675A
T1 construct: His; made in house; host or cells: E. coli BL21 (DE3)
Procedure: Under the experimental conditions of steady-state GTPase assays, GTP hydrolysis occurs as a two-step reaction, i.e., 1) GDP is released from the G protein and exchanged for GTP, and 2) the GTP loaded is hydrolyzed. Nucleotide exchange is the rate limiting step in this process because it is ˜50-100 times slower than GTP hydrolysis by Gαi subunits (Mukhopadhyay & Ross, 2002). Thus, the steady-state GTPase activity reflects the rate of nucleotide exchange, and was performed as described previously (Garcia-Marcos et al, 2010; Garcia-Marcos et al, 2012; Garcia-Marcos et al, 2011b). Briefly, His-Gαi3 (100 nM) was preincubated with different concentrations of His-DAPLE-CT (aa 1650-2028) for 15 min at 30° C. in assay buffer [20 mM Na-HEPES, pH 8, 100 mM NaCl, 1 mM EDTA, 2 mM MgCl2, 1 mM DTT, 0.05% (w:v) C12E10]. GTPase reactions were initiated at 30° C. by adding an equal volume of assay buffer containing 1 μM [γ-^32P]GTP (˜50 c.p.m/fmol). […] Samples were then centrifuged for 10 min at 10,000×g, and 500 μl of the resultant supernatant were scintillation counted to quantify released [^32P]Pi. For the time course experiments, data was expressed as raw c.p.m. For the dose-dependence curve experiments, the background [^32P]Pi detected at 15 min in the absence of G protein was subtracted from each reaction and data expressed as percentage of the Pi produced by His-Gαi3 in the absence of His-DAPLE-CT.

[6] = molecular target: T2, GST-Gαi3·Gβγ preformed complexes (Rattus norvegicus, UniProt P08753); assay: Gβγ displacement assay; assay type: binding; conditions: 0.05-1 μM WT or 1 μM F1675A
T2 construct: made in house; host or cells: E. coli BL21 (DE3) for GST-Gαi3; Gβγ endogenous from HEK293T lysate
Procedure: This assay was performed as described previously (Garcia-Marcos et al, 2009). Briefly, GST alone or GST-Gαi3 proteins immobilized on glutathione-agarose beads were incubated overnight at 4° C. with HEK293T cell lysates in binding buffer [50 mM Tris-HCl, pH 7.4, 100 mM NaCl, 0.4% (v:v) NP-40, 10 mM MgCl2, 5 mM EDTA, 2 mM DTT, protease inhibitor cocktail supplemented with 30 μM GDP]. Unbound Gβγ-subunits were washed twice with the same buffer and proteins bound to the glutathione-agarose beads divided into equal aliquots containing ˜5 μg (˜0.4 μM) GST-fusion proteins. Aliquots were incubated with increasing concentrations (0.05-1 μM) of purified His-DAPLE-CT (1650-2028) wild-type or 1 μM His-DAPLE-CT F1675A in binding buffer supplemented with GDP (˜200 μl) for 5 h at 4° C. Glutathione-agarose beads were washed and bound proteins eluted by boiling in Laemmli sample buffer and separated by SDS-PAGE.

GST-FZD7R-CT = molecular target: T3, GST-FZD7R-CT (Homo sapiens, UniProt O75084); assay: GST-FZD7-CT pulldown of His-Gαi3; assay type: binding; conditions: His-Gαi3 preloaded with GDP, in the presence of DAPLE-CT
T3 construct: the GST-tagged cytoplasmic tail of FZD7R; made in house; host or cells: bacteria (E. coli BL21 (DE3)); plasmid a gift of R. Yao
Procedure: GST-FZD7-CT and GST-PBD constructs were immobilized on glutathione-Sepharose beads directly from bacterial lysates by overnight incubation at 4° C. with constant tumbling. Next morning, GST-FZD7-CT immobilized on glutathione beads were washed and subsequently incubated with His-tagged DAPLE-CT or Gαi3 proteins at 4° C. with constant tumbling. Washes and immunoblotting were performed as previously.

His-Gαi3 [7] = molecular target: T1, His-Gαi3; assay: GTPγS binding assay; assay type: biochemical; conditions: 0-2 μM, 15 min
Procedure: GTPγS binding was measured using a filter binding method as described previously (Garcia-Marcos et al, 2010; Garcia-Marcos et al, 2011b). His-Gαi3 (100 nM) was preincubated with different concentrations of His-DAPLE-CT (aa 1650-2028) for 15 min at 30° C. in assay buffer [20 mM Na-HEPES, pH 8, 100 mM NaCl, 1 mM EDTA, 25 mM MgCl2, 1 mM DTT, 0.05% (w:v) C12E10]. Reactions were initiated at 30° C. by adding an equal volume of assay buffer containing 1 μM [^35S] GTPγS (˜50 c.p.m/fmol). Duplicate aliquots (25 μl) were removed at different time points, and binding of radioactive nucleotide was stopped by addition of 3 ml, ice-cold wash buffer (20 mM Tris-HCl, pH 8.0, 100 mM NaCl, 25 mM MgCl2). The quenched reactions were rapidly passed through BA-85 nitrocellulose filters (GE Healthcare) and washed with 4 ml wash buffer. Filters were dried and subjected to liquid scintillation counting. To determine the specific nucleotide binding, the background [^35S]GTPγS detected in the absence of G protein was subtracted from each reaction and data expressed as percentage of the [^35S] GTPγS bound by His-Gαi3 in the absence of His-DAPLE-CT.

In the case of “DAPLE-FA: full length myc-DAPLE with F1675A mutation in the GBA motif, expressed in cells”, the “inhibition of anchorage-dependent tumor growth” value (DLD1 cells [1]) is reported as “failed to inhibit”, the “reduction of number of colonies in soft-agar” value [2] is reported as “failed to inhibit” and the “inhibition of anchorage-independent tumor growth” value (DLD1 cells [3]) is reported as “enhanced oncogenicity”.

With “DAPLE-WT: myc-tagged full length human DAPLE (SEQ ID NO: 2) expressed in cells from pcDNA 3.1” the “invasion of matrigel by spheroids” value (NIH3T3 cells) was “increase of invasion tracks”, the “adherent colonies per well (tumor growth)” value (DLD1 cells [1]; DLD1 cells stably expressing constructs, 2-3 weeks) was “can inhibit tumor growth” and the “inhibition of anchorage-dependent tumor growth” value (DLD1 cells [1]) was roughly 90%. The “reduction of number of colonies in soft-agar” value [2] was roughly 65%, the “inhibition of anchorage-independent tumor growth” value (DLD1 cells [3]) was roughly 50% and the “eGFP signal (Wnt transcriptional activity)” value [4] was “showed inhibition of eGFP”.

B1: His-DAPLE-CT FA: His-DAPLE-CT with F1675A mutation, Gαi3 binding-deficient mutant (protein)
chain: GTAPPYVGVRPCSASPSSEMVTLEEALEESNRSSPTHDTPSCRDDLLSDYFRKASDPPAIGGQPGPPAKKEGAKMPTNFVAPTVKMAAPTSEGRPLKPGQYVKPNFRLTEAEAPPSVAPRQAQPPQSLSLGRPRQAPVPPASHAPASRSASLSRAFSLASADLLRASGPEACKQESPQKLGAPEALGGRETGSHTLQSPAPPSSHSLARERTPLVGKAGSSCQGPGPRSRPLDTRRFSLAPPKEERLAPLHQSATAPAIATAGAGAAAAGSGSNSQLLHFSPAAAPAARTKPKAPPRSGEVATITPVRAGLSLSEGDGVPGQGCSEGLPAKSPGRSPDLAPHLGRALEDCSRGSVSKSSPASPEPGGDPQTVWYEYGCV
modifications: left off: small tags and cut ends
With B1 the “acceleration of steady-state GTPase activity diminished versus His-DAPLE-CT WT” value (His-Gαi3 [5]) was greater than 90%, the “displacement of Gβγ from pre-assembled complex with GST-Gαi3” value [6] was “not” and the “increase of Gαi3 binding to GST-FZD7R-CT” value (GST-FZD7R-CT) was “not”. The “initial rate of nucleotide (GTPγS) binding by His-Gαi3” value (His-Gαi3 [7]) was “not significantly affected”.
